# Laboratory results published in US20230241027A1, “DIALKYL T[…] THEIR […] USES” (CAAMTECH, INC., priority 2020, published 2023).
# Assay: hydrolysis of the compound into its active (dissolved in water, followed by NMR)
compound,measurement,value
CN(C)CCc1c[nH]c2cccc(OP(=O)(O)O)c12 [Psilocybin],half-life,< 365 days
